Data from patent US10716795B2, “Steroid analogues for neuroprotection” (Emory University, priority 2008, dated 2020).
In brackets after ≈: the same amount, converted by molar mass. Structures can show the parent of a compound that is named as a salt.

Assays:
[1] = system: cerebral edema; assay: cerebral edema assay in whole animal model of TBI (cortical contusion); assay type: in vivo, rat; conditions: for efficacy in the cerebral edema assay (edema reduction) relative to PROG or group / mean % difference edema (injured vs non-injured tissue): male rats, cortical contusion; for efficacy in the cerebral edema assay (edema reduction) relative to PROG or group: two 8 mg/kg doses at 1 h and 6 h; for mean % difference edema (injured vs non-injured tissue): two 8 mg/kg doses at 1 h and 6 h post-surgery, brain tissue 24 hours post brain injury; for edema compared to subjects treated with vehicle: rat brain tissue 24 hours post brain injury
Experimental: Anesthetized male rats were first subjected to cortical contusion and were then given two 8 mg/kg doses of the test compound, the first at 1 h post-surgery and the second at 6 h. The animals were then sacrificed and tissue samples were taken from both injured and non-injured sections of the brain. Wet and dry weights were collected for each sample and cerebral edema (% water content) was determined as the difference in wet and dry weights divided by the wet weight. A “% mean difference” value could then be calculated based on the relative edema difference between injured and non-injured tissue samples for a given animal. […] The “vehicle” group were subjected to cortical injury but received only the drug carrier (22.5% 2-hydroxypropyl-β-cyclodextrine in water). All experimental treatments given by injection were made in stock solutions using 2-Hydroxypropyl-b-cyclodextrin (HBC; 45% w/v solution in H2O) as the solvent. These experimental solutions were then diluted 1:1 with sterile water for a final concentration of HBC of 22.5%.

[2] = solubility testing in phosphate buffered saline
Experimental: Several compounds were screened for solubility (FIG. 2). Solubility testing was done in phosphate buffered saline, which is considered to be a good model system for physiological conditions. Compounds were added in small portions at room temperature with stirring until a visible endpoint of saturation was reached.

[3] = system: Primary cortical cells; assay: MTT assay of glutamate toxicity in primary cortical cells; assay type: cell-based; conditions: for reduction in cell death at 5 μM: 5 μM compound, glutamate 0.5 μM 24 h; for reduction in cell death best concentration: 24 h pre-treatment, then glutamate 0.5 μM 24 h, at the best concentration; for cell survival / reduction in cell death (in words): glutamate toxicity, cortical neurons; for best concentration (for reduction in cell death): tested 0.1-80 μM, glutamate 0.5 μM
Experimental: Primary cortical cells were seeded in multi-well plates and cultured for 8 days. […] Cells were next exposed to glutamate (0.5 μM) for the following 24 h. Cytotoxicity was assessed by the MTT [3-(4,5-dimethylthiazol-2-yl)-2,5-diphenyltetrazolium bromide] assay, which is based on the ability of a mitochondrial dehydrogenase enzyme from viable cells to cleave the tetrazolium rings of the pale yellow MTT. This reaction forms dark blue formazan crystals which are largely impermeable to cell membranes, thus resulting in their accumulation within healthy cells. Solubilization of the cells results in the liberation of the crystals, which are then also solubilized. The number of surviving cells is directly proportional to the level of the formazan product created.

[4] = pharmacokinetic analysis in non-injury whole animal rat study (serum levels); conditions: IV 10 mg/kg, serum over 12 h
Experimental: Select compounds were submitted for pharmacokinetic analysis in a non-injury whole animal rat study.
The compounds were intravenously (IV) dosed at 10 mg/kg and serum samples were taken at several time points over the course of 12 h. Serum concentration levels were determined for the analogues, as well as for their respective parent compound.

[5] = PROG IP at 4 mg/kg, male rats; cited from earlier work
[6] = cited from earlier work
[7] = system: glutathione reductase; assay: glutathione reductase activity following TBI; assay type: in vivo; conditions: relative to progesterone and allopregnanolone
[8] = system: PR-mediated gene transcription; assay: PR-mediated gene transcription; assay type: cell-based
[9] = aqueous buffer, thermodynamic from solid

Compound | efficacy in the cerebral edema assay (edema reduction) relative to PROG or group [1] | reduction in cell death at 5 μM [3] [%] | reduction in cell death best concentration [3] [%] | best concentration (for reduction in cell death) [3] [µM] | in vivo stability of amino acid side chain / conversion to parent compound [4] | also measured
CC(=O)[C@H]1CC[C@H]2[C@@H]3CCC4=C/C(=N\OC(=O)[C@@H](N)C(C)C)CC[C@]4(C)[C@H]3CC[C@]12C [Compound P1-186, 3-Valine-Z-oxime-progesterone HCl] | average reduction in edema levels almost twice that of PROG | 34 | 34 | 5 | readily cleaved to give primarily the parent oxime P2-02 | solubility ([2]; phosphate buffered saline, room temperature, visible endpoint of saturation): 15200 µg/mL; cell survival / reduction in cell death (in words) [3]: highest levels of cell survival among the compounds screened
CC(=O)[C@H]1CCC2C3CCC4=CC(=O)CC[C@]4(C)C3CC[C@@]21C (some centres unmarked) [PROG, progesterone, reference compound] |  | 4 | 42 | 20 |  | mean % difference edema (injured vs non-injured tissue) [1]: 2.0%; edema compared to subjects treated with vehicle [1]: decrease in edema; maximum serum concentration [5]: 28 ng/mL; reduction of mortality ([6]; 100 moderate to severe TBI patients, 3 days intravenous treatment): over 60%; functional outcomes ([6]; 30 days post-injury): significantly improved functional outcomes
CC(=O)[C@H]1CC[C@H]2[C@@H]3CC[C@H]4C[C@H](O)CC[C@]4(C)[C@H]3CC[C@]12C [ALLO, allopregnanolone, reference compound] |  | −3 | 40 | 80 |  | 
CC(=O)[C@H]1CCC2C3CCC4=C[C@@H](OC(=O)[C@@H](N)C(C)C)CC[C@]4(C)C3CC[C@@]21C (stereo partly drawn) [Compound P1-31, 3β-L-Valine-progesterone-HC] | equivalent efficacy to progesterone |  |  |  | cleaved almost immediately | mean % difference edema (injured vs non-injured tissue) [1]: 2.2%; edema compared to subjects treated with vehicle [1]: decrease in edema; solubility [2, 9]: 3850 µg/mL (≈ 9.26 mM)
CC(=O)[C@H]1CCC2C3CCC4=C/C(=N/OC(=O)[C@@H](N)Cc5c[nH]c6ccccc56)CC[C@]4(C)C3CC[C@@]21C (stereo partly drawn) [Compound P1-79, O-L-Tryptophan-C3-oxime-progesterone HCl Salt] |  |  |  |  |  | mean % difference edema (injured vs non-injured tissue) [1]: 1.9%; edema compared to subjects treated with vehicle [1]: decrease in edema
CC(=O)[C@H]1CC[C@H]2[C@@H]3CCC4=C[C@@H](OC(=O)[C@@H]5CCCN5)CC[C@]4(C)[C@H]3CC[C@]12C [Compound P1-33, 3β-L-Proline-progesterone-HCl] |  |  |  |  | cleaved almost immediately | 
CC(=O)[C@H]1CCC2C3CC[C@@H]4C[C@H](OC(=O)[C@@H](N)C(C)C)CC[C@]4(C)C3CC[C@@]21C (stereo partly drawn) [Compound P1-133, 3α-L-Valine-5-pregnane-20-one HCl Salt] |  |  |  |  |  | solubility [2, 9]: 330 µg/mL
CC(C)[C@H](N)C(=O)O[C@@H](C)[C@H]1CCC2C3CCC4=CC(=O)CC[C@]4(C)C3CC[C@@]21C (stereo partly drawn) [Compound P1-57, 20-S-L-Valine-progesterone HCl Salt] |  | 23 | 30 | 10 |  | cell survival / reduction in cell death (in words) [3]: significant reductions in cell death
CC(=O)[C@H]1CCC2C3CC[C@H]4C[C@H](OC(=O)[C@@H](N)C(C)C)CC[C@]4(C)C3CC[C@@]21C (stereo partly drawn) [Compound P1-131, 3α-L-Valine-5α-pregnan-20-one HCl Salt] | greatest edema reduction among the ALLO isomer group |  |  |  | stable for a prolonged period of time and only gradually converted to its parent, ALLO | 
CC(=O)[C@@H]1CCC2C3CCC4=CC(=O)CC[C@@]4(C)C3CC[C@]21C (stereo partly drawn) [ent-PROG, ent-Progesterone] |  |  |  |  |  | glutathione reductase activity [7]: significantly increased glutathione reductase activity; activation of PR-mediated gene transcription [8]: does not activate
CC(=O)[C@H]1CC[C@H]2[C@@H]3CCC4=C/C(=N/OC(=O)[C@@H](N)C(C)C)CC[C@]4(C)[C@H]3CC[C@]12C [Compound P1-185, 3-Valine-E-oxime-progesterone HCl] | equivalent efficacy to progesterone | 27 | 27 | 5 |  | solubility [2, 9]: 13000 µg/mL; cell survival / reduction in cell death (in words) [3]: highest levels of cell survival among the compounds screened
